Results from patent publication US7192731B2, “Methods for efficient extraction of carotenoids using an esterase” (The State of Israel, Ministry of Agriculture & Rural …, priority 2001, dated 2007).
Each block holds one molecule with its values, some of them ahead of it.

Legend:
[1] = test system: lipase; experiment: Effect of CaCl2 and NaCl on lipase activity (deestrification of red-pepper carotenoids); format: biochemical; conditions: 150 mM NaCl without CaCl2
Procedure: The activity of lipase at pH 7.6 at 37.0° C. for 18 hours on the deestrification of red-pepper carotenoids was measured in the presence of CaCl2 and NaCl.

[2] = Enzymatic deesterification of paprika oleoresin carotenoids by lipases, HPLC; format: biochemical; conditions: similar assays, 37° C.
Procedure: HPLC was conducted on a Shimadzu LC-10 AT equipped with SCL-10A Shimadzu diode array detector. Photodiode array measurements of spectral properties from the individual peaks (from 260 to 540 nm) were determined at the upslope, apex and downslope. The column (Merck RP-18e 3.4×250 […], 5-μm particles) was used for HPLC separations. The peaks were detected at 450 and 474 nm.
Paprika oleoresin (20 mg) was mixed with TWEEN-20 (200 μl) or deoxycholate (100 mg) and 10 ml of H2O. The emulsion has been shaken at 37° C. for 24 hours. Extraction of carotenoids was performed by the addition of 4 ml of ethanol and 5 ml of hexane. The extraction with hexane was done repeatedly until no color could be observed in the extracts. The combined hexane extracts were washed with water (25 ml) and dried over anhydrous sodium sulfate for HPLC determination of the carotenoids.
Immobilized lipase from Candida rugosa (Sigma-Aldrich Corp., St Louis, Mo.). Following use in deesterification, the enzyme-bearing beads are recovered by precipitation at 15 K RPM, and stored at 4° C. until reuse.
Immobilized lipase beads may be recycled by precipitation, and reused. […] FIG. 8 compares the efficiency of deesterification with fresh, once-, and twice-recycled immobilized lipase, quantifying the efficient reuse of the immobilized enzyme with paprika oleoresin. […]

Molecule: [Cl-].[Na+] [NaCl]
deestrification [1]: 87%

deesterification of paprika carotenoids compared with lipase amano 30 [2]: far poorer results
B1: pancreatic lipase: pancreatic lipase from porcine, Sigma (protein, UniProt P00591 1-450, looked up)
Pancreatic triacylglycerol …: SEVCFPRLGCFSDDAPWAGIVQRPLKILPWSPKDVDTRFLLYTNQNQNNYQELVADPSTITNSNFRMDRKTRFIIHGFIDKGEEDWLSNICKNLFKVESVNCICVDWKGGSRTGYTQASQNIRIVGAEVAYFVEVLKSSLGYSPSNVHVIGHSLGSHAAGEAGRRTNGTIERITGLDPAEPCFQGTPELVRLDPSDAKFVDVIHTDAAPIIPNLGFGMSQTVGHLDFFPNGGKQMPGCQKNILSQIVDIDGIWEGTRDFVACNHLRSYKYYADSILNPDGFAGFPCDSYNVFTANKCFPCPSEGCPQMGHYADRFPGKTNGVSQVFYLNTGDASNFARWRYKVSVTLSGKKVTGHILVSLFGNEGNSRQYEIYKGTLQPDNTHSDEFDSDVEVGDLQKVKFIWYNNNVINPTLPRVGASKITVERNDGKVYDFCSQETVREEVLLTLNPC
